Here are results for 1 compound from patent US7709514B2, “Therapeutic molecules and methods-1” (Cortical Pty Ltd, priority 2002, dated 2010).

For test [1], the system named is IL-1-induced proliferation of human rheumatoid arthritis FLS. The experiment in a line: inhibition of human rheumatoid arthritis synovial fibroblast proliferation. It counts as cell-based. How it is done: Fibroblast-like synoviocytes (FLS) were obtained from synovium of rheumatoid (RA) patients undergoing joint replacement surgery and prepared according to Lacey et al (26). FLS were isolated using enzyme digestion and cultured in RPMI/10% fetal calf serum (FCS) as previously described. A single cell suspension was obtained by digesting minced synovial tissue with 2.4 mg/ml Dispase (grade II, 5 U/mg) 1 mg/ml collagenase (type II) and DNase (type 1). FLS were propagated in 10 cm culture plates in RPMI supplemented with 10% FCS at 37° C. in a 5% CO2 humidified incubator. Cells beyond 3rd passage were more than 99% CD45−. Cells were used between passages 4 and 9. Cells from four individual human RA donor FLS used.
To determine the effect of compound 5 on FLS proliferation, DNA synthesis was measured by [^3H] thymidine incorporation. FLS were seeded overnight at 0.5×10^5 cells per well in 24 well tissue culture plates in RPMI/10% FCS. Cell growth was synchronised by culturing FLS in RPMI/0.1% bovine serum albumin for 24 h. […] FLS were detached using Trypsin-EDTA, harvested using a cell harvester, and the radioactivity incorporated into DNA determined using a Wallac 1409 liquid scintillation counter. Results were expressed as the percentage of control (untreated) cell proliferation, and the mean±SEM of four experiments calculated.

Test [2] deals with murine antigen induced arthritis. The experiment in a line: murine antigen-induced arthritis, histological score. It counts as in vivo, mice. To be noted: 15 mg/kg IP once per 24 hours, day 28. How it is done:
Antigen-induced arthritis was induced in mice. C57BL6/J male mice, aged 7-10 weeks old, were immunized on day 0 with 200 μg methylated BSA (mBSA) emulsified in 200 μl of Freund's complete adjuvant (FCA) injected subcutaneously into the flank skin. Mice were treated with compound 5, administered by intraperitoneal injection, once per 24 hours at a dose of 15 mg/kg body weight. After seven days, mice received 100 μg mBSA and 100 μl FCA by intradermal injection at the base of the tail. After a further 14 days, arthritis was induced by intra-articular injection of 30 μg mBSA in 10 μl of sterile saline into the left knee, the right knee being injected with sterile saline alone.
Arthritis was analysed histologically at day 28 after first immunisation. Knee joints were dissected and fixed in 10% buffered formalin for 7 days. Fixed tissues were decalcified for 3 weeks in 15% ethylene-diamine-tetra-acetic acid (EDTA), dehydrated and embedded in paraffin. Sagittal sections (5 μm) of the knee joint were stained with Safranin-O and counterstained with fast green/iron hematoxylin. Histological sections were scored from 0 to 3 for four parameters: Synovitis was defined as hyper-cellularity of the synovium including pannus formation. Joint space exudate was identified as leukocytes, discretely or in aggregates, in the joint space. Cartilage degradation was defined as the loss of Safranin-O staining of articular cartilage (0=full stained cartilage, 3=totally unstained cartilage). Bone damage was defined as the extent and depth of the subchondral bone invasion by pannus. A total score was also generated from the sum of these four parameters (maximum 12).

The subject of test [3] is lymph node and splenic T cells. The experiment in a line: ex vivo antigen-specific T cell activation after in vivo treatment. Set-up: species or system mice. The text has this: In vivo administration of such a compound might be expected to exert effects on T cell responsiveness even after the T cells have been removed from exposure to the compound, that is, if T cells were studied ex vivo after in vivo treatment with the MIF antagonist compound. To measure ex vivo antigen-specific T cell activation, draining lymph nodes from arthritic limbs or spleens were removed from mice with murine antigen induced arthritis, induced as above with mBSA, at day 28 after first immunisation and a single cell suspension prepared in DMEM containing 5% FCS and 0.05% 2-mercaptoethanol. 1×10^5 cells/200 μl were cultured in triplicate in the presence or absence of mBSA (0.1, 1.0, 10 μg/ml) in 96-well plates for 48 hours (37° C., 5% CO2.) The T cell proliferation response was determined by measuring ^3H-thymidine incorporation during the final 18 hr. The cells were harvested and radioactivity incorporation into the DNA was measured with a Wallac 1409 liquid scintillation counter. The means of each triplicate culture were calculated. Each experiment comprised at least three individual animals and the results presented represent the mean±SEM of groups of animals in each experiment. The percentage inhibition of T cell proliferation was calculated using the result of the […] incorporation of cells from compound-treated animals subtracted from the ^3H-thymidine incorporation of cells from vehicle-treated animals.

The test system of test [4] is murine peritoneal macrophage cytokine production. The experiment in a line: inhibition of peritoneal macrophage cytokine production (ELISA). It is filed as cell-based, mice. As to conditions: Mus musculus. How it is done:
C57BL6/J male mice were injected intraperitoneally with 2 ml of thioglycollate. Five (5) days later peritoneal macrophages were collected by lavaging the peritoneum of anaesthetized mice with 3 ml of cold Hanks buffered saline solution. Cells from several mice were pooled, washed and re-suspended in DMEM supplemented with 5% FCS. Cells were plated in 96 well plastic tissue culture plates at 1×10^5 cells/well. Cells were treated with compound or vehicle for 1 hour in a 5% CO2 incubator at 37° C. Cells were then treated with LPS (10-100 ng/ml) or recombinant human interferon-γ (10 units/ml) and incubated for 24 hours. After 24 hours, 50 μl of supernatant from each well was carefully removed and transferred to ELISA plates. The concentration of interleukin 1 (IL-1) or interleukin 6 (IL-6) was measured by ELISA. The concentration of compound at which LPS- or interferon-γ-induced cytokine release was suppressed by 50% compared to vehicle-only-treated cells (EC50) was calculated using Prism® software. Table 9 lists the EC50 for two compounds tested in this assay.

The structures appear in SMILES notation. Where two headings read alike, the source gives them in different places.

As for `CCCCCOC(=O)c1ccc2[nH]c(=O)[nH]c2c1` [Compound 5], the “FLS proliferation, percentage of control (untreated) cell proliferation” value in test [1] (IL-1β 0.1 ng/ml + compound 5 50 μM, mean±SEM of four experiments, IL-1 + vehicle 156 ± 32) is reported as 18 ± 6 percentage of control. In addition, the “IL-1-induced FLS proliferation” value in test [1] (compound 5 50 μM) was “marked and statistically significant inhibition”. In addition, the total arthritis score entry in test [2] (FIG. 10a, p=0.0024) was “statistically significant reduction”. Moreover, the “severity of all individual parameters of arthritis” value in test [2] (FIG. 10b) is on record as “Statistically significant reductions”. Further, in test [3] (FIG. 11a, vs vehicle), the “ex vivo activation of lymph node T cells in response to mBSA” value is listed as “reduced proliferative responses”. Further, the “ex vivo splenic T cell proliferation in response to mBSA” value in test [3] (FIG. 11b, table 7, vs vehicle) is on record as “inhibitory effect”. Further, the “% inhibition of ex vivo splenic T cell activation” value in test [3] ([mBSA] 1 μg/mL) is on record as 33%; in test [3] ([mBSA] 10 μg/mL) it was 30%. In addition, the EC50 stood at 0.075 µM in test [4] ([LPS] 10 ng/mL, read-out: EC50, IL-1 release) and 17.7 µM in test [4] ([LPS] 100 ng/mL, read-out: EC50, IL-6 release).
